The subject of assay [1] is Diet Induced Obese (DIO) C57BL/6 mice. Kind of assay: 10 day DIO mouse model, weight loss vs. vehicle. It is filed as in vivo. The conditions noted are these: 240 h; for inhibition in vivo at 0.3 mg/kg: 0.3 mpk sc once a day for 10 days; for inhibition in vivo at 1 mg/kg: 1.0 mpk sc once a day for 10 days. An excerpt: The objective of this study design was to investigate the efficacy of disclosed compounds in a 10 day DIO mouse model. Effects on body weight, food intake, hematology and blood chemistry were the primary readouts of this study design. Male, Diet Induced Obese (DIO) C57BL/6 mice, 19-21 weeks of age (13-15 weeks on high fat diet) were ordered from a certified vendor and upon receipt were housed on irradiated corncob bedding in micro-isolator cages on a 12-hour light-dark cycle (0700-1900) at 68-74° F. and 30-70% humidity. Mice were fed Research Diets D12492 (60% Kcal fat, 20% Kcal carbohydrate and 20% protein) and provided water ad libitum. DIO mice were received and housed in the facility for approximately two weeks prior to the start of test article administration. On Day −4 or −3, mice were randomized into study groups based on body weight and body weights were continued to be recorded daily for the duration of the study. Daily food intake was assessed starting on Study Day −2 by weighing of the food with hopper together to avoid loss of food in transfer.
(§1) Compounds were formulated into a 100% DMSO stock (at 9 mg/mL) prior to the start, and further diluted into the target working concentration using the vehicle of 10% DMSO in water. Prior to test article administration, starting on Day −3 a dosing acclimation occurred with all animals receiving a subcutaneous injection of vehicle (10% DMSO) only for 3 days. Starting on Day 1, test compounds or vehicle were administered based on individual body weight, subcutaneously, once a day for 10 days. All mice were sacrificed on Day 11, 24 hours following the final dosing on Day 10. After sacrifice, whole blood was collected and analyzed for hematology and blood chemistry parameters.
(§2) Compounds were tested for weight loss vs. vehicle at 0.3 and 1.0 mpk sc (mg per kg animal weight delivered subcutaneously), and the results are shown in Table 2 below.

The test system of assay [2] is rat DIO model (Sprague Dawley rats on 45% High Fat diet). Kind of assay: 11 day rat DIO model, weight loss vs. vehicle. The conditions noted are these: for Rat @ 0.3 mpk sc (%) weight loss vs. vehicle: 0.3 mpk sc once a day for 11 days; for Rat @ 1.0 mpk sc (%) weight loss vs. vehicle: 1.0 mpk sc once a day for 11 days. It is filed as in vivo.
Source text: The objective of this study design is to investigate the efficacy of disclosed compounds in an 11 day rat DIO model used to screen compounds for pharmacologic efficacy on endpoints related to obesity and metabolism. Effects on body weight, food intake, hematology and blood chemistries were the primary readouts of this study design. Male Sprague Dawley rats, approximately 8 weeks of age, were ordered from a certified vendor and housed on irradiated corncob bedding in micro-isolator cages, on a 12-hour light-dark cycle (0700-1900) at 68-74° F. and 30-70% humidity. Rats were fed Research Diets D12451 (45% High Fat) and provided water ad libitum. Rats were received and housed in the facility for at least two or three weeks prior to start of test article administration. On Day −4 or −3, rats were randomized into study groups based on body weight and body weights were continued to be recorded daily for the duration of the study. Daily food intake was assessed starting on Study Day −2 by weighing the hopper including the food to avoid loss of food in transfer.
as §1, with “for 11” for “for 10”, “All animals” for “All mice”, “11, approximately 2” for “11, 24”, “Day 11.” for “Day 10.”
as §2

Another assay addresses T1, recombinant human MetAP2 (Homo sapiens, UniProt P50579).
T1 construct: Flag; made in house
Kind of assay: Recombinant human MetAP2 enzyme inhibition assay (MAS peptide / amino acid oxidase / Amplex Ultrared readout). It is filed as biochemical. The conditions noted are these: Flag tagged human recombinant MetAP2, 25 minutes at 25° C. As to the method: Compounds are tested for their capacity to inhibit recombinant human MetAP2 activity using the following assay.
Flag tagged Human recombinant MetAP2 expressed and isolated for use as the enzyme source. 10 mM stock solutions of compounds were prepared in 100% DMSO and further diluted in 100% DMSO required concentration to 1 mM stocks. The stock compound solutions and DMSO vehicle controls were diluted to target final compound concentrations using assay buffer to a final concentration of 50 mM HEPES containing 100 mM NaCl, pH adjusted to 7.5. The MAS peptide was formulated to a 7.5 mM stock in distilled water and prior to use further diluted 1:4. […] 40 μl of enzyme was mixed with 100 μl of MnCl2 then further diluted in assay buffer to a final concentration of 16 μg/ml. To test for compound effect on MetAP2 enzyme activity, 5 μl of test compound, 10 μl of MAS substrate/amino acid oxidase mixture, 10 μl of MetAP2 was added to test wells in a 384 well black plate with blank wells containing no enzyme, replaced with 10 μl of assay buffer. All compounds were tested in duplicate on two occasions on the same day.
The plate was sealed with a TopSeal A cover and mixed briefly on an orbital mixer at 900 rpm. The plate was incubated for a further 25 minutes at 25° C. A 5× stock of Amplex buffer was prepared (0.25 M sodium phosphate, pH 7.4) and stored at 4° C. […] Horse radish peroxidase was diluted in […] of Amplex buffer, 100 μl of this was combined with 50 μl of Amplex Ultrared in […] of 1× Amplex buffer to generate sufficient detection reagent for a 384 well plate. 25 μl detection reagent was added to each well of the test plate, which was re-sealed and mixed briefly on an orbital shaker. The plate was transferred to an Envision Multi-label reader and RFU measured corresponding to excitation 531 nm and emission 595 nm. At the end of the MetAP2 incubation 25 μl Amplex/HRP mixture per well was added and the plate read plate on a plate reader.

Counter-ions that a name gives are not always drawn. Bounds are passed on as bounds.

T1 sequence (P50579 whole entry): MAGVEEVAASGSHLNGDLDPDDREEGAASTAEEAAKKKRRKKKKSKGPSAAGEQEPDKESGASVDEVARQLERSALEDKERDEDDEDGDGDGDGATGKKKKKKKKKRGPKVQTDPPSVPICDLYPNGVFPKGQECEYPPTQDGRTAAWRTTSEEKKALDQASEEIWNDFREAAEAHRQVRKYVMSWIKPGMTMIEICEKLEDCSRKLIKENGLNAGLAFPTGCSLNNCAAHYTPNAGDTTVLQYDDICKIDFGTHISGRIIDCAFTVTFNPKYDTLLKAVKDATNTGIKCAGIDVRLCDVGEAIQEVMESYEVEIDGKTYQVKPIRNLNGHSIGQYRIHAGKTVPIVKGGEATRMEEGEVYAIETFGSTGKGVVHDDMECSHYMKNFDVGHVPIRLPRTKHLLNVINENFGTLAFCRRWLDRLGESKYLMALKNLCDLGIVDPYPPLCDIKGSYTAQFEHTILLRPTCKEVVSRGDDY

The inhibition in vivo is the relative decrease from the control value, in per cent. High values mean strong suppression, low ones little suppression. One may read the IC50 as the point on the concentration scale where inhibition reaches its midpoint. In assay [1], `CO[C@@H]1[C@H](OC(=O)N[C@H](c2cn(C[C@H]3CCN(C)C3)cn2)C(C)C)CC[C@]2(CO2)[C@H]1[C@@]1(C)O[C@@H]1CC=C(C)C` [Example 15, (3R,4S,5S,6R)-5-methoxy-4-((2R,3R)-2-methyl-3-(3-methylbut-2-en-1-yl)oxiran-2-yl)-1-oxaspiro[2.5]octan-6-yl ((S)-2-methyl-1-(1-(((S)-1-methylpyrrolidin-3-yl)methyl)-1H-imidazol-4-yl)propyl)carbamate] displayed an inhibition in vivo at 0.3 mg/kg of 10.8% and an inhibition in vivo at 1 mg/kg of 8.4%. Further, in assay [2], the “Rat @ 0.3 mpk sc (%) weight loss vs. vehicle” value is on record as 10.6% and the “Rat @ 1.0 mpk sc (%) weight loss vs. vehicle” value is given as 16.4%. Moreover, at recombinant human MetAP2, the half-inhibitory concentration (IC50) was below 50 nM.

`CO[C@@H]1[C@H](OC(=O)N[C@H](c2cn(C[C@H]3CCCN3C)cn2)C(C)C)CC[C@]2(CO2)[C@H]1[C@@]1(C)O[C@@H]1CC=C(C)C` [Example 16, (3R,4S,5S,6R)-5-methoxy-4-((2R,3R)-2-methyl-3-(3-methylbut-2-enyl)oxiran-2-yl)-1-oxaspiro[2.5]octan-6-yl (S)-2-methyl-1-(1-(((R)-1-methylpyrrolidin-2-yl)methyl)-1H-imidazol-4-yl)propylcarbamate]: 0.3 mg/kg produced 6.6% inhibition in vivo in assay [1]. Moreover, in assay [2], the “Rat @ 0.3 mpk sc (%) weight loss vs. vehicle” value was 2.8%. Further, the IC50 at recombinant human MetAP2 was 50 to 500 nM.

Turning to `CO[C@@H]1[C@H](OC(=O)N[C@@H](Cc2noc(=O)[nH]2)C(C)C)CC[C@]2(CO2)[C@H]1[C@@]1(C)O[C@@H]1CC=C(C)C` [Example 27, (3R,4S,5S,6R)-5-methoxy-4-((2R,3R)-2-methyl-3-(3-methylbut-2-enyl)oxiran-2-yl)-1-oxaspiro[2.5]octan-6-yl (S)-3-methyl-1-(5-oxo-4,5-dihydro-1,2,4-oxadiazol-3-yl)butan-2-ylcarbamate], the inhibition in vivo at 1 mg/kg in assay [1] was determined as 5.4%. In assay [2], the “Rat @ 0.3 mpk sc (%) weight loss vs. vehicle” value was −0.8% and the “Rat @ 1.0 mpk sc (%) weight loss vs. vehicle” value stood at 1.9%. Further, the 50% inhibitory concentration (IC50) on recombinant human MetAP2 was 50 to 500 nM.

Consider `CNc1nnc([C@@H](NC(=O)O[C@@H]2CC[C@]3(CO3)[C@@H]([C@@]3(C)O[C@@H]3CC=C(C)C)[C@@H]2OC)C(C)C)o1` [Example 2, (3R,5S,6R)-5-methoxy-4-((2R,3R)-2-methyl-3-(3-methylbut-2-enyl)oxiran-2-yl)-1-oxaspiro[2.5]octan-6-yl (S)-2-methyl-1-(5-(methylamino)-1,3,4-oxadiazol-2-yl)propylcarbamate], for which, in assay [1], the inhibition in vivo at 0.3 mg/kg stood at 5.4% and the inhibition in vivo at 1 mg/kg was 4.6%. In assay [2], the “Rat @ 0.3 mpk sc (%) weight loss vs. vehicle” value worked out at 0.6% and the “Rat @ 1.0 mpk sc (%) weight loss vs. vehicle” value amounted to 0.9%. The IC50 on recombinant human MetAP2 was below 50 nM.

Molecule `CO[C@@H]1[C@H](OC(=O)N[C@H](c2nccn2C[C@H]2CCCN2C)C(C)C)CC[C@]2(CO2)[C@H]1[C@@]1(C)O[C@@H]1CC=C(C)C` [Example 5, (3R,4S,5S,6R)-5-methoxy-4-((2R,3R)-2-methyl-3-(3-methylbut-2-enyl)oxiran-2-yl)-1-oxaspiro[2.5]octan-6-yl (S)-2-methyl-1-(1-(((R)-1-methylpyrrolidin-2-yl)methyl)-1H-imidazol-2-yl)propylcarbamate formate] had an inhibition in vivo at 0.3 mg/kg in assay [1] of 3.1%. Moreover, the IC50 on recombinant human MetAP2 lay in the range of 50 to 500 nM.

As for `CO[C@@H]1[C@H](OC(=O)N[C@H](Cc2nnc(N)o2)C(C)C)CC[C@]2(CO2)[C@H]1[C@@]1(C)O[C@@H]1CC=C(C)C` [Example 32, (3R,4S,5S,6R)-5-methoxy-4-((2R,3R)-2-methyl-3-(3-methylbut-2-enyl)oxiran-2-yl)-1-oxaspiro[2.5]octan-6-yl (R)-1-(5-amino-1,3,4-oxadiazol-2-yl)-3-methylbutan-2-ylcarbamate], in assay [1], testing at 0.3 mg/kg gave an inhibition in vivo of 3.9% and the inhibition in vivo at 1 mg/kg was determined as 0.8%. Moreover, the IC50 on recombinant human MetAP2 was below 50 nM.

`CO[C@@H]1[C@H](OC(=O)N[C@H](c2cn(C[C@H]3CCN(C)C3)c(C)n2)C(C)C)CC[C@]2(CO2)[C@H]1[C@@]1(C)O[C@@H]1CC=C(C)C` [Example 24, (3R,4S,5S,6R)-5-methoxy-4-((2R,3R)-2-methyl-3-(3-methylbut-2-enyl)oxiran-2-yl)-1-oxaspiro[2.5]octan-6-yl (S)-2-methyl-1-(2-methyl-1-(((S)-1-methylpyrrolidin-3-yl)methyl)-1H-imidazol-4-yl)propylcarbamate] displayed an inhibition in vivo at 0.3 mg/kg in assay [1] of 8.2%. Also, the IC50 on recombinant human MetAP2 was in the range of 50 to 500 nM.

`CO[C@@H]1[C@H](OC(=O)N[C@H](Cc2nnc(N)s2)C(C)C)CC[C@]2(CO2)[C@H]1[C@@]1(C)O[C@@H]1CC=C(C)C` [Example 36, (3R,4S,5S,6R)-5-methoxy-4-((2R,3R)-2-methyl-3-(3-methylbut-2-en-1-yl)oxiran-2-yl)-1-oxaspiro[2.5]octan-6-yl ((R)-1-(5-amino-1,3,4-thiadiazol-2-yl)-3-methylbutan-2-yl)carbamate] registered an inhibition in vivo at 1 mg/kg in assay [1] of 2%. For the same molecule, the IC50 on recombinant human MetAP2 is 50 to 500 nM.

Molecule `CNc1nnc([C@H](NC(=O)O[C@@H]2CC[C@]3(CO3)[C@@H]([C@@]3(C)O[C@@H]3CC=C(C)C)[C@@H]2OC)C(C)C)o1` [Example 3, (3R,5S,6R)-5-methoxy-4-((2R,3R)-2-methyl-3-(3-methylbut-2-enyl)oxiran-2-yl)-1-oxaspiro[2.5]octan-6-yl (R)-2-methyl-1-(5-(methylamino)-1,3,4-oxadiazol-2-yl)propylcarbamate] registered an inhibition in vivo at 0.3 mg/kg in assay [1] of 1.1%. In addition, the IC50 on recombinant human MetAP2 was 50 to 500 nM.

In assay [1], `CO[C@@H]1[C@H](OC(=O)N[C@H](c2cn(C[C@@H]3CCCN3C)cn2)C(C)C)CC[C@]2(CO2)[C@H]1[C@@]1(C)O[C@@H]1CC=C(C)C` [Example 14, (3R,4S,5S,6R)-5-methoxy-4-((2R,3R)-2-methyl-3-(3-methylbut-2-enyl)oxiran-2-yl)-1-oxaspiro[2.5]octan-6-yl (S)-2-methyl-1-(1-(((S)-1-methylpyrrolidin-2-yl)methyl)-1H-imidazol-4-yl)propylcarbamate formate] displayed an inhibition in vivo at 0.3 mg/kg of 5.8% and an inhibition in vivo at 1 mg/kg of 10.3%. The IC50 on recombinant human MetAP2 was below 50 nM.
